Data as given in patent publication US20200256853A1, “Models of Reconstructed Sensitive Skin” (Laboratoires Expanscience, priority 2017, published 2020).

Columns and labels:
Format in all cases: cell-based
[1] = test system: reconstructed Sensitive Skin model (reconstructed human epidermises treated with 0.6% lactic acid); test: Intracellular measurements of inflammatory mediators (ELISA) in reconstructed Sensitive Skin model, Example 3; settings: for IL1RA/IL1-alpha ratio Change / Intracellular IL1-alpha Change / Intracellular IL1RA Change / Intracellular IL8 Change: change vs. lactic acid
Protocol: Intracellular amounts of IL-1α, IL8 and IL1-RA were determined by ELISA (R&D Systems) in ground epidermis (n=2).
(§1) Reconstructed human epidermises were obtained from the keratinocytes of a […] donor using the method derived from Poumay et al. (Arch Dermatol Res 2004; 296:203-11). After 2 days of immersion culture, the reconstructed human epidermises were cultured at the air/liquid interface for 10 days.
(§2) Epidermises at differentiation day 10 was treated or not (control) systemically with the test compounds and incubated for 24 hours.
(§3) The amount of inflammatory mediators IL-1alpha (IL1α), IL-8 and PGE2 present in skin culture supernatants was evaluated using ELISA kits (R&D Systems). • Evaluations of intracellular inflammatory markers IL-1α, IL8 and IL1-RA (n=2)
(§4) Same protocol as described in Example 2. • Determination of Poly-Unsaturated Fatty Acids (PUFAs) (n=2)

[2] = test system: reconstructed Sensitive Skin model (reconstructed human epidermises treated with 0.6% lactic acid); test: Determinations of released inflammatory mediators (ELISA) in reconstructed Sensitive Skin model, Example 3; settings: for Released IL1-alpha Change / Released IL8 Change / Released PGE2 Change: change vs. lactic acid
Protocol: as §1, §2, §3

[3] = test system: reconstructed Sensitive Skin model (reconstructed human epidermises treated with 0.6% lactic acid); test: Determination of PUFAs (GC/MS) in reconstructed Sensitive Skin model, Example 3; settings: for C18:1 Change / C18:2 LA Change / C20:4 AA Change: change vs. lactic acid
Protocol: Screening of polyunsaturated fatty acids (PUFAs) expressed by the epidermis was carried out by GC/MS analysis of samples obtained after grinding the epidermises (n=2).
The amounts were normalized by C16:0 (palmitic acid), which is representative of the overall lipid content of the epidermis.
as §1, §2, §4
Same protocol as described in Example 2.

[4] = OX100 100 μM + lactic acid 0.6%

CCCCCCCCCCCC1=NC(C)(C)CO1 [OX100, Cycloceramide]
IL1RA/IL1-alpha ratio Mean ± SD ([1]; OX100 10 μM + lactic acid 0.6%): 25.6 ± 0.276
Intracellular IL1-alpha Mean ± SD ([1]; OX100 10 μM + lactic acid 0.6%): 919.5 ± 53.03 pg/mg protein
Intracellular IL1RA Mean ± SD ([1]; OX100 10 μM + lactic acid 0.6%): 23566 ± 1624 pg/mg protein
Intracellular IL8 Mean ± SD ([1]; OX100 10 μM + lactic acid 0.6%): 76.24 ± 8.309 pg/mg protein
IL1RA/IL1-alpha ratio Change ([1]; OX100 10 μM + lactic acid 0.6%): +4%
Intracellular IL1-alpha Change ([1]; OX100 10 μM + lactic acid 0.6%): −12%
Intracellular IL1RA Change ([1]; OX100 10 μM + lactic acid 0.6%): −8%
Intracellular IL8 Change ([1]; OX100 10 μM + lactic acid 0.6%): −4%
IL1RA/IL1-alpha ratio Mean ± SD [1, 4]: 20.5 ± 0.481
Intracellular IL1-alpha Mean ± SD [1, 4]: 713.5 ± 113.8 pg/mg protein
Intracellular IL1RA Mean ± SD [1, 4]: 14581 ± 1989 pg/mg protein
Intracellular IL8 Mean ± SD [1, 4]: 56.95 ± 7.460 pg/mg protein
IL1RA/IL1-alpha ratio Change [1, 4]: −17%
Intracellular IL1-alpha Change [1, 4]: −32%
Intracellular IL1RA Change [1, 4]: −43%
Intracellular IL8 Change [1, 4]: −28%
IL1RA/IL1α ratio (in words) ([1]; concentration not given): maintained the balance of the IL1RA/IL1α ratio
Increase in intracellular IL1RA level induced by lactic acid treatment (in words) ([1]; concentration not given): significantly inhibited
Released IL1-alpha Mean ± Standard deviation ([2]; OX100 10 μM + lactic acid 0.6%): 27 ± 13 pg/mL
Released IL8 Mean ± Standard deviation ([2]; OX100 10 μM + lactic acid 0.6%): 175 ± 30 pg/mL
Released PGE2 Mean ± Standard deviation ([2]; OX100 10 μM + lactic acid 0.6%): 98 ± 28 pg/mL
Released IL1-alpha Change ([2]; OX100 10 μM + lactic acid 0.6%): −61%
Released IL8 Change ([2]; OX100 10 μM + lactic acid 0.6%): −16%
Released PGE2 Change ([2]; OX100 10 μM + lactic acid 0.6%): −50%
Released IL1-alpha Mean ± Standard deviation [2, 4]: 31 ± 19 pg/mL
Released IL8 Mean ± Standard deviation [2, 4]: 146 ± 24 pg/mL
Released PGE2 Mean ± Standard deviation [2, 4]: 100 ± 48 pg/mL
Released IL1-alpha Change [2, 4]: −54%
Released IL8 Change [2, 4]: −30%
Released PGE2 Change [2, 4]: −49%
Release of IL1α induced by lactic acid (in words) ([2]; concentration not given): significantly inhibited
Release of IL8 induced by lactic acid (in words) ([2]; concentration not given): significantly inhibited
Release of PGE2 induced by lactic acid (in words) ([2]; concentration not given): significantly inhibited
C18:1 Mean ± SD, amount normalized to C16:0 ([3]; OX100 10 μM + lactic acid 0.6%): 0.2795
C18:2 LA Mean ± SD, amount normalized to C16:0 ([3]; OX100 10 μM + lactic acid 0.6%): 0.1515
C20:4 AA Mean ± SD, amount normalized to C16:0 ([3]; OX100 10 μM + lactic acid 0.6%): 0.0380
C18:1 Change ([3]; OX100 10 μM + lactic acid 0.6%): −28%
C18:2 LA Change ([3]; OX100 10 μM + lactic acid 0.6%): −29%
C20:4 AA Change ([3]; OX100 10 μM + lactic acid 0.6%): −34%
C18:1 Mean ± SD, amount normalized to C16:0 [3, 4]: 0.2065
C18:2 LA Mean ± SD, amount normalized to C16:0 [3, 4]: 0.0970
C20:4 AA Mean ± SD, amount normalized to C16:0 [3, 4]: 0.0265
C18:1 Change [3, 4]: −47%
C18:2 LA Change [3, 4]: −54%
C20:4 AA Change [3, 4]: −54%
